The test relates to MC-38 (Ker) tumors. In words: MC-38 (Ker) syngeneic model efficacy. Conditions: PO once daily up to 21 days, C57BL/6 mice. The format is in vivo, mouse. The protocol:
The murine cell line MC-38 derived from C57BL6 murine colon adenocarcinoma cells was obtained from Kerafast (Boston, MA, USA). A suspension of 2.5×10^5 cells in culture medium mixed with Matrigel® (Corning Life Sciences, Lowell, MA, USA; 1:1, volume:volume) was injected subcutaneously in the right hind flank of female C57BL/6 mice to generate tumor formation. Treatment started when the size of the flank tumors was approximately 120 mm^3. Vehicle and four different doses of Example 1 were administered once daily to each of eight mice at each dose level for up to 21 days. Each administration consisted of a single 0.2 mL oral (PO) dose in a vehicle formulation (10% ethanol, 30% PEG300, and 60% PHOSAL® 50 PG).

In the case of `C[C@@H]1CN(c2ncc(C(F)(F)F)cn2)CCN1C(=O)[C@H]1C[C@@H](c2c[nH]c(=O)c(C(F)(F)F)c2)C1` [Example 1, 5-[(1S,3s)-3-{(2R)-2-methyl-4-[5-(trifluoromethyl)pyrimidin-2-yl]piperazine-1-carbonyl}cyclobutyl]-3-(trifluoromethyl)pyridin-2(1H)-one], the “maximum tumor growth inhibition (TGIMax)” value (Dose A) came out at 46%, the “maximum tumor growth inhibition (TGIMax)” value (Dose B) came to 77%, the “maximum tumor growth inhibition (TGIMax)” value (Dose C) amounted to 98% and the “maximum tumor growth inhibition (TGIMax)” value (Dose D) was 99%.

Values taken from US20250333394A1, “Tiparp Inhibitor Compounds” (AbbVie Inc., priority 2024, published 2025).
